Structures can show the parent of a compound that is named as a salt.
How the values were obtained:
[1] = biological target: T1, PKB-PIF (Homo sapiens, UniProt P31751); assay: Measurement of PKB kinase inhibitory activity (IC50), 33P-ATP phosphocellulose filter assay; type: biochemical; conditions: 0.6 nM enzyme, 30 μM ATP, 25 μM AKTide-2T substrate, 20 minutes; read-out: IC50, concentration of test compound required to inhibit 50% of the PKB activity
T1 construct: made in house
Method: The inhibition of protein kinase B (PKB) activity by compounds can be determined essentially as described by Andjelkovic et al. (Mol. Cell. Biol. 19, 5061-5072 (1999)) but using a fusion protein described as PKB-PIF and described in full by Yang et al (Nature Structural Biology 9, 940-944 (2002)). […] A final concentration of 0.6 nM enzyme is used in a buffer that includes 20 mM MOPS pH 7.2, 30 μM ATP/γ^33P-ATP and 25 μM substrate. Compounds are added in DMSO solution to a final DMSO concentration of 2.5%. The reaction is allowed to proceed for 20 minutes before addition of excess orthophosphoric acid to quench activity. The reaction mixture is transferred to a phosphocellulose filter plate where the peptide binds and the unused ATP is washed away. After washing, scintillant is added and the incorporated activity measured by scintillation counting.
The % inhibition of the PKB activity is calculated and plotted in order to determine the concentration of test compound required to inhibit 50% of the PKB activity (IC50).

[2] = biological target: T2, PKA catalytic domain (Homo sapiens, UniProt P17612); assay: Measurement of PKA kinase inhibitory activity (IC50), 33P-ATP filter plate assay; type: biochemical; conditions: 1 nM enzyme, 40 μM ATP, 20 minutes; read-out: IC50, concentration of test compound required to inhibit 50% of the PKA activity
T2 construct: using the PKA catalytic domain from Upstate Biotechnology (#14-440); purchased Upstate Biotechnology 14-440
Method: Compounds of the invention can be tested for PK inhibitory activity using the PKA catalytic domain from Upstate Biotechnology (#14-440) and the 9 residue PKA specific peptide ([…]), also from Upstate Biotechnology (#12-257), as the substrate. A final concentration of 1 nM enzyme is used in a buffer that includes 20 mM MOPS pH 7.2, 40 μM ATP/γ^33P-ATP and […] substrate. Compounds are added in dimethylsulphoxide (DMSO) solution to a final DMSO concentration of 2.5%. The reaction is allowed to proceed for 20 minutes before addition of excess orthophosphoric acid to quench activity. Unincorporated γ^33P-ATP is then separated from phosphorylated proteins on a Millipore MAPH filter plate. The plates are washed, scintillant is added and the plates are then subjected to counting on a Packard Topcount.
The % inhibition of the PKA activity is calculated and plotted in order to determine the concentration of test compound required to inhibit 50% of the PKA activity (IC50).

T1 sequence (P31751 with tags, fused parts or gaps limits assumed): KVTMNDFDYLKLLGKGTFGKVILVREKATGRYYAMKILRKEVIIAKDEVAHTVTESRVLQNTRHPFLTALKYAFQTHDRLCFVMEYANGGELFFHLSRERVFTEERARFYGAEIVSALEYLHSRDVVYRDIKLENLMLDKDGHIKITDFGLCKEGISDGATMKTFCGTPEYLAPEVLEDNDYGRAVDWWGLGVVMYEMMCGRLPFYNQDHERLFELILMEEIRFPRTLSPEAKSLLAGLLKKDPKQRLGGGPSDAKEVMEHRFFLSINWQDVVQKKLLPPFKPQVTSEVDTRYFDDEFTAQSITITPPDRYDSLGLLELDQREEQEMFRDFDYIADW

| IC50 [1] [nM] | IC50 [2] [nM] | Compound |
| --- | --- | --- |
| < 1000 | – | NC1(C(=O)NCc2ccc(Cl)c(-c3ccccc3)c2)CCN(c2ncnc3[nH]ccc23)CC1 [Example 2, 4-Amino-1-(7H-pyrrolo[2,3-d]pyrimidin-4-yl)-piperidine-4-carboxylic acid (6-chloro-biphenyl-3-ylmethyl)-amide hydrochloride] |
| < 1000 | < 10000 | NCC1(c2cccc(-c3ccccc3)c2)CCN(c2ncnc3[nH]ccc23)CC1 [Example 4, C-[4-Biphenyl-3-yl-1-(7H-pyrrolo[2,3-d]pyrimidin-4-yl)piperidin-4-yl]methylamine] |
| < 1000 | – | COc1ccc(-c2cccc(C3(CN)CCN(c4ncnc5[nH]ccc45)CC3)c2)cc1 [Example 5, C-[4-(4′-Methoxybiphenyl-3-yl)-1-(7H-pyrrolo[2,3-d]pyrimidin-4-yl)piperidin-4-yl]methylamine] |
| – | < 10000 | NC1(C(=O)NCc2ccc(Cl)cc2)CCN(c2ncnc3[nH]c(=O)[nH]c23)CC1 [Example 6, 4-Amino-1-(8-oxo-8,9-dihydro-7H-purin-6-yl)-piperidine-4-carboxylic acid 4-chloro-benzylamide] |
| < 1000 | < 10000 | NC1(C(=O)NCc2ccc(Cl)cc2F)CCN(c2ncnc3[nH]c(=O)[nH]c23)CC1 [Example 7, 4-Amino-1-(8-oxo-8,9-dihydro-7H-purin-6-yl)-piperidine-4-carboxylic acid 4-chloro-2-fluoro-benzylamide] |
| < 1000 | – | NCC1(c2ccc(OC(F)(F)F)cc2)CCN(c2ncnc3[nH]c(=O)[nH]c23)CC1 [Example 10, 6-[4-Aminomethyl-4-(4-trifluoromethoxyphenyl)piperidin-1-yl]-7,9-dihydropurin-8-one] |
| < 1000 | – | NC1(Cc2ccc(Cl)cc2)CCN(c2ncnc3[nH]c(=O)[nH]c23)CC1 [Example 11, 6-[4-Amino-4-(4-chlorobenzyl)piperidin-1-yl]-7,9-dihydropurin-8-one] |
| < 1000 | < 10000 | NC1(c2ccc(Cl)cc2)CCN(c2ncnc3[nH]c(=O)[nH]c23)CC1 [Example 12, 6-[4-Amino-4-(4-chlorophenyl)piperidin-1-yl]-7,9-dihydropurin-8-one] |
| < 1000 | – | CC(C)(C)c1ccc(CC2(N)CCN(c3ncnc4[nH]ncc34)CC2)cc1 [Example 13, 4-(4-tert-Butyl-benzyl)-1-(1H-pyrazolo[3,4-d]pyrimidin-4-yl)-piperidin-4-ylamine] |
